IC50 data for two compounds are collected here from US20260015344A1, “PAN-KRAS INHIBITORS” (Mirati Therapeutics, Inc., priority 2022, published 2026).

Where only a bound is given, the exact number is not on record here.

The target in one experiment is T1, KRas^G12D (Homo sapiens, UniProt P01116, G12D).
T1 construct: corresponding to amino acids 1-169, produced at Accelegan Inc; biotin (biotinylated); purchased Accelegan Inc
In words: KRas Binding Assay (TR-FRET displacement), KRas G12D. Particulars: TR-FRET tracer displacement. The protocol:
(§1) This Example illustrates that exemplary compounds of the present invention bind to KRas and are capable of displacing a labeled tracer ligand occupying the KRas binding site. KRas^WT, KRas^G12A, KRas^G12C, KRas^G12D, KRas^G12R, KRas^G12S, KRas^G12V, KRas^G13D, or KRas^Q61H was used in the assay.
(§2) The ability of a compound to bind to KRas was measured using a TR-FRET displacement assay. Biotinylated KRas (corresponding to amino acids 1-169, produced at Accelegan Inc.) was incubated with custom made Cy5 labelled tracer, terbium streptavidin (Cisbio Inc.) and compound (1% DMSO final) in buffer (50 mM HEPES, pH 7.5, 5 mM MgCl2, 0.005% Tween-20 and 1 mM DTT). After a 60-minute incubation at room temperature, the reaction was measured using a BMG LABTECH CLARIO star Plus via TR-FRET. […] The POC values were fit to a 4-parameter IC50 equation and the IC50 value reported.

The next experiment addresses T2, KRas^G12V (Homo sapiens, UniProt P01116, G12V).
T2 construct: corresponding to amino acids 1-169, produced at Accelegan Inc; biotin (biotinylated); purchased Accelegan Inc
The experiment can be described thus: KRas Binding Assay (TR-FRET displacement), KRas G12V. Particulars: TR-FRET tracer displacement. The protocol:
as §1, §2

Another experiment has as its target T3, KRas^G12R (Homo sapiens, UniProt P01116, G12R).
T3 construct: corresponding to amino acids 1-169, produced at Accelegan Inc; biotin (biotinylated); purchased Accelegan Inc
The experiment can be described thus: KRas Binding Assay (TR-FRET displacement), KRas G12R. Particulars: TR-FRET tracer displacement. The protocol:
as §1, §2

Another experiment deals with T4, KRas^WT (Homo sapiens, UniProt P01116).
T4 construct: corresponding to amino acids 1-169, produced at Accelegan Inc; biotin (biotinylated); purchased Accelegan Inc
T4 sequence (P01116 1-169 isoform P01116-2): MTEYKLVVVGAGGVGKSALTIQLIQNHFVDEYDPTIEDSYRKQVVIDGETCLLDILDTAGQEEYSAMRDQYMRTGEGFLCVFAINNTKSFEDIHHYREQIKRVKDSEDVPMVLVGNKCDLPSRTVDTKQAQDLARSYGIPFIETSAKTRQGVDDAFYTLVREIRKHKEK
In words: KRas Binding Assay (TR-FRET displacement), KRas WT. Particulars: TR-FRET tracer displacement. How it is done: as §1, §2

The next experiment concerns the target T5, KRas^G13D (Homo sapiens, UniProt P01116, G13D).
T5 construct: corresponding to amino acids 1-169, produced at Accelegan Inc; biotin (biotinylated); purchased Accelegan Inc
In words: KRas Binding Assay (TR-FRET displacement), KRas G13D. Particulars: TR-FRET tracer displacement. The protocol: as §1, §2

The target in another experiment is T6, KRas^Q61H (Homo sapiens, UniProt P01116, Q61H).
T6 construct: corresponding to amino acids 1-169, produced at Accelegan Inc; biotin (biotinylated); purchased Accelegan Inc
T6 sequence (P01116 1-169 isoform P01116-2 Q61H): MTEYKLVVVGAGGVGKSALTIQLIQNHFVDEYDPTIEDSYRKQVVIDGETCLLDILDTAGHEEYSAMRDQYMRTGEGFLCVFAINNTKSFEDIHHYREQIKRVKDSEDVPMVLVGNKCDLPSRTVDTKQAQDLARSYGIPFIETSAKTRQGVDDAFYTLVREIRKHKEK
In words: KRas Binding Assay (TR-FRET displacement), KRas Q61H. Particulars: TR-FRET tracer displacement. How it is done: as §1, §2

For a further experiment, the target named is T7, KRas^G12A (Homo sapiens, UniProt P01116, G12A).
T7 construct: corresponding to amino acids 1-169, produced at Accelegan Inc; biotin (biotinylated); purchased Accelegan Inc
T7 sequence (P01116 1-169 isoform P01116-2 G12A): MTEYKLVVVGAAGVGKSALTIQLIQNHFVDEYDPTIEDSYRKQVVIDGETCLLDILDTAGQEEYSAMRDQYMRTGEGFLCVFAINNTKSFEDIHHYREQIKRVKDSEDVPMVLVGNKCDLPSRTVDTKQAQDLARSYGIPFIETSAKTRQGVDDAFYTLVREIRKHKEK
The experiment can be described thus: KRas Binding Assay (TR-FRET displacement), KRas G12A. Particulars: TR-FRET tracer displacement. The protocol: as §1, §2

For another experiment, the target named is T8, KRas^G12C (Homo sapiens, UniProt P01116, G12C).
T8 construct: corresponding to amino acids 1-169, produced at Accelegan Inc; biotin (biotinylated); purchased Accelegan Inc
T8 sequence (P01116 1-169 isoform P01116-2 G12C): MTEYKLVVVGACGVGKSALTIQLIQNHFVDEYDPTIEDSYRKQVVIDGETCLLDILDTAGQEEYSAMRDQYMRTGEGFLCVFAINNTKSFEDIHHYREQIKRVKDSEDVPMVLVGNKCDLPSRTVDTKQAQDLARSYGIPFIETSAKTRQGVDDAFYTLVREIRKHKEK
The experiment can be described thus: KRas Binding Assay (TR-FRET displacement), KRas G12C. Particulars: TR-FRET tracer displacement. The protocol: as §1, §2

In a further experiment the target is T9, KRas^G12S (Homo sapiens, UniProt P01116, G12S).
T9 construct: corresponding to amino acids 1-169, produced at Accelegan Inc; biotin (biotinylated); purchased Accelegan Inc
T9 sequence (P01116 1-169 isoform P01116-2 G12S): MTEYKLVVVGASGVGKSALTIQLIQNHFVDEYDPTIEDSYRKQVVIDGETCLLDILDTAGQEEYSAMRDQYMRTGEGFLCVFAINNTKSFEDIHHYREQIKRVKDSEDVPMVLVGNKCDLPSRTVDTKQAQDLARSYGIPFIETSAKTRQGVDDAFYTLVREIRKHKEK
The experiment can be described thus: KRas Binding Assay (TR-FRET displacement), KRas G12S. Particulars: TR-FRET tracer displacement. How it is done: as §1, §2

The test system of experiment [1] is KRas-mediated Phosphorylation of ERK in AsPC-1 cells. In words: HTRF pERK assay, AsPC-1 cells. In kind it is cell-based. Particulars: Homo sapiens, ASPC1, 3 hrs compound incubation, read-out: Inhibition (HTRF IC50 nM) of KRas-mediated Phosphorylation of ERK, AsPC-1. How it is done:
(§3) • Day 1: Seed 6,000 cells/well-25 μl/well in 384-well white solid bottom plate; RPM1_10% FBS.
(§4) • 1. To harvest cells from flask using 0.05% Trypsin/EDTA solution. Add 10 mL of media to stop trypsinizing. Pipette the cells into a conical bottom 50 mL centrifuge tube and centrifuge 5 min×1000 rpm. • 2. Re-suspend the cell pellet in media, take a cell count, and then adjust the cell density using fresh media. • 3. Seed 6,000 cells into cell culture plate with 50 μL media. The • 4. Incubate cell plate overnight in a 37° C., 5% CO2 incubator.
(§5) • 1. Use Tecan to complete the compound addition. Compounds start from 10 uM top, 3-fold dilution, and 10 doses. The final DMSO concentration is 0.8%. Dispensed 0.2 uM Trametinib as Min control. • 2. Incubate cell plate for 3 hrs in the incubator. Detection with Cisbio pERK HTRF Kit • 1. Dilute 1 volume of 4× lysis buffer with 3 volumes of deionized water. Then, add 100× the blocking reagent. Keep lysis buffer on the ice. • 2. At the end of the compound treatment, flick-off the media. • 3. Add 35 μL of lysis buffer per well using a Multidrop Combi. Then place on a plate agitator shaking at 300 rpm at 4° C. for 40 mins. • 4. Make up the HTRF antibody buffer. For each assay plate, mix 50 μL of d2-conjugate antibody with 950 μL of detection buffer. Similarly, mix 50 μL of Cryptate antibody with 950 μL of detection buffer. Then mix the two diluted antibodies together. • 5. Dispense 3.4 μL the antibody buffer to wells of an empty assay plate. Seal the plate and centrifuge plate 30 sec×1000 rpm. • 6. At the end of the 4° C. lysis, centrifuge the lysate plates 3 mins×1500 rpm. • 7. Use the Bravo to transfer 13.6 μL of lysate from cell culture plate to assay plate. Then incubate assay plate for 2 hrs at room temperature. • 8. At the end of incubation, read plate on the Envision after centrifuging plate 30 sec×1000 rpm.

Experiment [2] deals with KRas-mediated Phosphorylation of ERK in H727 cells. In words: HTRF pERK assay, H727 cells. Particulars: Homo sapiens, NCI-H727, 3 hrs compound incubation, read-out: Inhibition (HTRF IC50 nM) of KRas-mediated Phosphorylation of ERK, H727. It counts as cell-based. How it is done: as §3, §4, §5
Experiment [3] relates to KRas-mediated Phosphorylation of ERK in MKN1 cells. The experiment can be described thus: HTRF pERK assay, MKN1 cells. Particulars: Homo sapiens, MKN-1, 3 hour compound incubation, read-out: Inhibition (HTRF IC50 nM) of KRas-mediated Phosphorylation of ERK, MKN1. In kind it is cell-based. How it is done:
Cisbio HTRF Advanced pERK Assay Catalog #64AERPEH • Cells: MKN1, PSN1
as §3

Experiment [4] concerns KRas-mediated Phosphorylation of ERK in H2009 cells. The experiment can be described thus: HTRF pERK assay, H2009 cells. Particulars: Homo sapiens, NCI-H2009; H2009 cells by column count (c8); may be PSN1; read-out: Inhibition (HTRF IC50 nM) of KRas-mediated Phosphorylation of ERK, H2009. It counts as cell-based.

T1 sequence (P01116 1-169 isoform P01116-2 G12D): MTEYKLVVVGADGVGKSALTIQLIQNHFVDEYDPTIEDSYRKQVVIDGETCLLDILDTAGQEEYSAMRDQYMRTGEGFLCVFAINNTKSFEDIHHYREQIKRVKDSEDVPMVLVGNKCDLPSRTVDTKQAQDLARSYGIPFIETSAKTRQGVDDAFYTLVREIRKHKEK
T3 sequence (P01116 1-169 isoform P01116-2 G12R): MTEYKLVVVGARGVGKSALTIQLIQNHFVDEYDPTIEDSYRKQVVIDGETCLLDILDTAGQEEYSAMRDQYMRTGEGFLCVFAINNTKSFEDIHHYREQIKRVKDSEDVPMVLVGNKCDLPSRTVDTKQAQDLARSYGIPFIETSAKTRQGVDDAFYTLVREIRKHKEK
T5 sequence (P01116 1-169 isoform P01116-2 G13D): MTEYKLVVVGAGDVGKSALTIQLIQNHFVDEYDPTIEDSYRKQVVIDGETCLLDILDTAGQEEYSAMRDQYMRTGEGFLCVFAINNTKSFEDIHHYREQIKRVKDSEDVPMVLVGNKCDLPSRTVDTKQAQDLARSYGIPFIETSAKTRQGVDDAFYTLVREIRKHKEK
T2 sequence (P01116 1-169 isoform P01116-2 G12V): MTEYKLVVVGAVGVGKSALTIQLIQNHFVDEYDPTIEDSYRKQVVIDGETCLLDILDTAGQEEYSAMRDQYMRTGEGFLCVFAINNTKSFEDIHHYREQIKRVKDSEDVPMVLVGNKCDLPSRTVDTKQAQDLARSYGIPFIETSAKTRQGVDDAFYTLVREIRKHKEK

Turning to `C[C@H](Oc1nc(-c2noc(C3(C)CCCc4sc(N)c(C#N)c43)n2)cc(N2CCC[C@@](C)(O)C2)n1)[C@@H]1CCCN1C` (stereo partly drawn) [Example 1, 2-amino-4-(3-(6-((R)-3-hydroxy-3-methylpiperidin-1-yl)-2-((S)-1-((S)-1-methylpyrrolidin-2-yl)ethoxy)pyrimidin-4-yl)-1,2,4-oxadiazol-5-yl)-4-methyl-4,5,6,7-tetrahydrobenzo[b]thiophene-3-carbonitrile], the IC50 at KRas^G12D is 42 nM; on KRas^G12V, 43 nM; at KRas^G12R, 28 nM; on KRas^WT, 22 nM; at KRas^G13D it was 74 nM; at KRas^Q61H it was 117 nM. For the same compound, the IC50 at KRas^G12A was determined as 82 nM; at KRas^G12C, 106 nM; on KRas^G12S, 90 nM; in experiment [1], 3740 nM; in experiment [2], 6440 nM; in experiment [3], 593 nM. Moreover, the IC50 in [4] is over 10000 nM.

Regarding `C[C@H](Oc1nc(-c2noc(C3(C)CCCc4sc(N)c(C#N)c43)n2)cc(N2C[C@H]3CC[C@@H](C2)N3)n1)[C@@H]1CCCN1C` (stereo partly drawn) [Example 3, 4-(3-(6-((1R,5S)-3,8-diazabicyclo[3.2.1]octan-3-yl)-2-((S)-1-((S)-1-methylpyrrolidin-2-yl)ethoxy)pyrimidin-4-yl)-1,2,4-oxadiazol-5-yl)-2-amino-4-methyl-4,5,6,7-tetrahydrobenzo[b]thiophene-3-carbonitrile], the IC50 at KRas^G12D is 18 nM; at KRas^G12V, 767 nM; on KRas^G12R, 728 nM; on KRas^WT, 195 nM; at KRas^G13D, 315 nM; on KRas^Q61H it was 656 nM. In addition, the IC50 on KRas^G12A is 879 nM; on KRas^G12C, 1060 nM; at KRas^G12S, 912 nM; in experiment [1] it was 5940 nM; in experiment [2] it was over 10000 nM; in [3] it was over 10000 nM. Moreover, the IC50 in experiment [4] is over 10000 nM.
